{
  "source": "patent US20200339691A1",
  "about": "“PROTEINACEOUS MOLECULES AND USES THEREFOR” (priority 2018, published 2020)",
  "key": {"[1]": {"system": "CD44^hiCD24^lo CSCs in MDA-MB-231 cells", "assay": "FACS analysis of CD44^hiCD24^lo cancer stem cells in MDA-MB-231 cells treated with P1 analogues", "assay_type": "cell-based, human", "settings": "50 μM peptide, 48 hours; for CD44^hiCD24^lo CSCs (%) / COI, Live Single CD44^hiCD24^lo CSCs (Cell Count): n = 1; for Average Inhibition of CSCs (%) / CD44^hiCD24^lo CSCs (%) Repeat 1 / CD44^hiCD24^lo CSCs (%) Repeat 2 / CD44^hiCD24^lo CSCs (%) Repeat 3: n = 3", "procedure": "Analogues of P1 (Table 6) were designed and synthesized in accordance with the procedure of Example 5. The ability of these analogues to inhibit cancer stem cells was determined using FACS analysis on MDA-MB-231 cells, which constitutively contain approximately 90% CD44^hiCD24^lo cancer stem cells, treated with the peptides.\n(§1) Non-adherent cells were removed during the washing steps."}, "MDA-MB-231 cells": {"system": "MDA-MB-231 cells", "assay_type": "cell-based, human", "settings": "50 μM peptide, 48 hours, n = 1", "text": "as §1"}},
  "note": "Where a SMILES comes first, the peptide text is derived from it. The star is where a group is joined. Myristoyl = CCCCCCCCCCCCCC(=O)*;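 as to COI, Live Single Cells (Cell Count): live means Hoechst-negative events among single cells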",
  "data": [
    {"smiles": "CCCCCCCCCCCCCC(=O)N[C@@H](CC(C)C)C(=O)N[C@H](C(=O)N[C@@H](Cc1ccccc1)C(=O)N[C@H](C(=O)N[C@@H](Cc1ccccc1)C(=O)N[C@@H](CCCNC(=N)N)C(=O)N[C@@H](CC(C)C)C(=O)N[C@@H](CCCNC(=N)N)C(=O)N[C@@H](CCCCN)C(=O)NCC(=O)N[C@@H](CCCNC(=N)N)C(=O)N[C@@H](CCSC)C(=O)N[C@@H](CCCCN)C(=O)N[C@@H](CC(=O)O)C(=O)N[C@H](C(=O)N[C@@H](CCCCN)C(=O)N[C@@H](CCCCN)C(N)=O)C(C)C)[C@@H](C)CC)[C@@H](C)O", "note": "[Peptide 2853835, Myristoyl-LTFIFRLRKGRMKDVKK-NH2] (Myristoyl-LTFIFRLRKGRMKDVKK-NH2)", "values": [
      {"measurement": "Inhibition of CSCs (%) Repeat 1", "setting": "[1]", "result": 90.70, "unit": "%"},
      {"measurement": "Inhibition of CSCs (%) Repeat 2", "setting": "[1]", "result": 90.45, "unit": "%"},
      {"measurement": "Inhibition of CSCs (%) Repeat 3", "setting": "[1]", "result": 89.87, "unit": "%"},
      {"measurement": "CD44^hiCD24^lo CSCs (%)", "setting": "[1]", "result": 2.50, "unit": "%"},
      {"measurement": "COI, Live Single CD44^hiCD24^lo CSCs (Cell Count)", "setting": "[1]", "result": 1},
      {"measurement": "Average Inhibition of CSCs (%)", "setting": "[1]", "result": 90.34, "unit": "%"},
      {"measurement": "CD44^hiCD24^lo CSCs (%) Repeat 1", "setting": "[1]", "result": 8.33, "unit": "%"},
      {"measurement": "CD44^hiCD24^lo CSCs (%) Repeat 2", "setting": "[1]", "result": 8.57, "unit": "%"},
      {"measurement": "CD44^hiCD24^lo CSCs (%) Repeat 3", "setting": "[1]", "result": 9.09, "unit": "%"},
      {"measurement": "COI (Cell Count)", "setting": "MDA-MB-231 cells", "result": 1733},
      {"measurement": "COI, Live Single Cells (Cell Count)", "setting": "MDA-MB-231 cells", "result": 40},
      {"measurement": "COI, Single (Cell Count)", "setting": "MDA-MB-231 cells", "result": 1292},
      {"measurement": "Total Cell Count", "setting": "MDA-MB-231 cells", "result": 8580}
    ]},
    {"smiles": "CCCCCCCCCCCCCC(=O)N[C@@H](CCC(=O)O)C(=O)N[C@H](C(=O)N[C@@H](Cc1ccccc1)C(=O)N[C@H](C(=O)N[C@@H](Cc1ccccc1)C(=O)N[C@@H](CCCNC(=N)N)C(=O)N[C@@H](CC(C)C)C(=O)N[C@@H](CCCNC(=N)N)C(=O)N[C@@H](CCCCN)C(=O)NCC(=O)N[C@@H](CCCNC(=N)N)C(=O)N[C@@H](CCSC)C(=O)N[C@@H](CCSC)C(=O)N[C@@H](CC(=O)O)C(=O)N[C@H](C(=O)N[C@@H](CCCCN)C(=O)N[C@@H](CCCCN)C(N)=O)C(C)C)[C@@H](C)CC)[C@@H](C)O", "note": "[Peptide 2853802, Myristoyl-ETFIFRLRKGRMMDVKK-NH2] (Myristoyl-ETFIFRLRKGRMMDVKK-NH2)", "values": [
      {"measurement": "Inhibition of CSCs (%) Repeat 1", "setting": "[1]", "result": 42.88, "unit": "%"},
      {"measurement": "Inhibition of CSCs (%) Repeat 2", "setting": "[1]", "result": 46.07, "unit": "%"},
      {"measurement": "Inhibition of CSCs (%) Repeat 3", "setting": "[1]", "result": 49.94, "unit": "%"},
      {"measurement": "CD44^hiCD24^lo CSCs (%)", "setting": "[1]", "result": 48.71, "unit": "%"},
      {"measurement": "COI, Live Single CD44^hiCD24^lo CSCs (Cell Count)", "setting": "[1]", "result": 3133},
      {"measurement": "Average Inhibition of CSCs (%)", "setting": "[1]", "result": 46.30, "unit": "%"},
      {"measurement": "CD44^hiCD24^lo CSCs (%) Repeat 1", "setting": "[1]", "result": 51.19, "unit": "%"},
      {"measurement": "CD44^hiCD24^lo CSCs (%) Repeat 2", "setting": "[1]", "result": 48.38, "unit": "%"},
      {"measurement": "CD44^hiCD24^lo CSCs (%) Repeat 3", "setting": "[1]", "result": 44.92, "unit": "%"},
      {"measurement": "COI (Cell Count)", "setting": "MDA-MB-231 cells", "result": 7612},
      {"measurement": "COI, Live Single Cells (Cell Count)", "setting": "MDA-MB-231 cells", "result": 6432},
      {"measurement": "COI, Single (Cell Count)", "setting": "MDA-MB-231 cells", "result": 7095},
      {"measurement": "Total Cell Count", "setting": "MDA-MB-231 cells", "result": 9672}
    ]},
    {"smiles": "CCCCCCCCCCCCCC(=O)N[C@@H](CC(C)C)C(=O)N[C@H](C(=O)N[C@@H](Cc1ccccc1)C(=O)N[C@H](C(=O)N[C@@H](Cc1ccccc1)C(=O)N[C@@H](CCCNC(=N)N)C(=O)N[C@@H](CC(C)C)C(=O)N[C@@H](CCCNC(=N)N)C(=O)N[C@@H](CCCCN)C(=O)NCC(=O)N[C@@H](CCCNC(=N)N)C(=O)N[C@@H](CCSC)C(=O)N[C@@H](CCSC)C(=O)N[C@@H](CC(=O)O)C(=O)N[C@H](C(=O)N[C@@H](CCCCN)C(=O)N[C@@H](CC(C)C)C(N)=O)C(C)C)[C@@H](C)CC)[C@@H](C)O", "note": "[Peptide 2853846, Myristoyl-LTFIFRLRKGRMMDVKL-NH2] (Myristoyl-LTFIFRLRKGRMMDVKL-NH2)", "values": [
      {"measurement": "Inhibition of CSCs (%) Repeat 1", "setting": "[1]", "result": 61.79, "unit": "%"},
      {"measurement": "Inhibition of CSCs (%) Repeat 2", "setting": "[1]", "result": 63.60, "unit": "%"},
      {"measurement": "Inhibition of CSCs (%) Repeat 3", "setting": "[1]", "result": 62.39, "unit": "%"},
      {"measurement": "CD44^hiCD24^lo CSCs (%)", "setting": "[1]", "result": 27.88, "unit": "%"},
      {"measurement": "COI, Live Single CD44^hiCD24^lo CSCs (Cell Count)", "setting": "[1]", "result": 87},
      {"measurement": "Average Inhibition of CSCs (%)", "setting": "[1]", "result": 62.59, "unit": "%"},
      {"measurement": "CD44^hiCD24^lo CSCs (%) Repeat 1", "setting": "[1]", "result": 34.25, "unit": "%"},
      {"measurement": "CD44^hiCD24^lo CSCs (%) Repeat 2", "setting": "[1]", "result": 32.66, "unit": "%"},
      {"measurement": "CD44^hiCD24^lo CSCs (%) Repeat 3", "setting": "[1]", "result": 33.75, "unit": "%"},
      {"measurement": "COI (Cell Count)", "setting": "MDA-MB-231 cells", "result": 370},
      {"measurement": "COI, Live Single Cells (Cell Count)", "setting": "MDA-MB-231 cells", "result": 312},
      {"measurement": "COI, Single (Cell Count)", "setting": "MDA-MB-231 cells", "result": 330},
      {"measurement": "Total Cell Count", "setting": "MDA-MB-231 cells", "result": 10000}
    ]}
  ]
}
